Patent US7514582B2, “2′-substituted 1,1′-biphenyl-2-carboxamides, processes for their preparation, their use as medicaments, and pharmaceutical preparations comprising them” (Sanofi-Aventis Deutschland GmbH, priority 1999, dated 2009)

Row | SMILES | melting point
1 | CC(=O)c1ccc(S(=O)(=O)NCc2ccccc2-c2ccccc2C(=O)NCCc2ccccc2)cc1 [Example 3 b, 2′-(4-Acetylphenylsulfonylaminomethyl)biphenyl-2-carboxylic acid phenethylamide] | 145 °C
2 | O=C(NCc1ccccc1)c1ccccc1-c1ccccc1CNS(=O)(=O)c1ccccc1 [Example 3 j, 2′-(3-Phenylsulfonylaminomethyl)biphenyl-2-carboxylic acid benzylamide] | 162 °C
3 | CC(C)CCNC(=O)c1ccccc1-c1ccccc1CNS(=O)(=O)c1ccccc1 [Example 3 l, 2′-(Phenylsulfonylaminomethyl)biphenyl-2-carboxylic acid (3-methyl butyl)amide] | 127 °C
